Here are results for one compound from patent publication US10980769B2, “Tiglien-3-one derivatives” (QBIOTICS PTY LTD, priority 2005, dated 2021).

For one series, the system named is Trichophyton rubrum. In words: MycoTOX (Tr) antifungal bioassay. It is filed as cell-based. As for the experimental part: MycoTOX (alternatively referred to herein as Tr) is a non-chromogenic bioassay used to detect activity against filamentous fungal pathogens of plants and animals. The bioassay features a solid phase agar base into which the test compound has been incorporated. As the growth patterns of filamentous fungi are readily apparent on the agar surface the extent of mycelial growth, sporulation (if relevant to the species under investigation) and colour changes with maturation are measured.
MycoTOX, involves a fungus (spore suspension or mycelial fragments) being applied to the surface of an agar matrix containing the test chemical and allowed to grow for a period of up to a week (depending on species). The assay is monitored at two discrete times to identify key development phases in the life cycle (for example mycelial growth and extent of sporulation) and the active wells noted. The monitoring times are dependent on the fungal species under investigation.
The MycoTOX assays were carried out using Trichophyton rubrum. The MycoTOX test is alternatively referred to as Tr to indicate the use of Trichophyton rubrum.

For a further series, the system named is HT-29 colon tumour cells. The series can be described thus: Cell scattering of cultured cells. The series is classed as cell-based, human. The text has this:
In addition, scattering of MCF-7 and HT-29 colon tumour cells was observed, typical of PKC activators. […] Additionally, given their similarity in structure, EBI-47, EBI-59 and EBI-61 are also considered to be protein kinase C activators.

In series [1] the test system is murine B-cell lymphoma line A20. In words: Systemic (intraperitoneal) treatment of A20 lymphoma in SCID-NOD mice. It is filed as in vivo. As to conditions: 5 doses of 20-25 μg from day 18, one mouse. How it is done: Animal experiments were conducted under Queensland Institute of Medical Research (QIMR) Animal Ethics Committee approvals. The B16 mouse melanoma model was obtained by injecting 0.5 million B16 mouse melanoma cells subcutaneously into each of the 2 flanks of a male C57BL/6 mouse. The human tumour xenografts were obtained by injecting 2 million of the respective tumour cell line into each of 4 sites on the flanks of male nude mice (BALB/c background). EBI-46 was applied: (a) topically by dilution of a concentrated solution in acetone into an isopropanol gel, once a day for 3 days; (b) intralesionally by injection into the tumour of drug dissolved in 25% propylene glycol-0.1 M saline, (c) systemically by injection intraperitoneally in 25% propylene glycol in 0.1 M saline. Tumour size was measured with electronic callipers in mm and converted to volume (cubic mm) using the formula: Tumour volume=length×breadth×breadth/2. Results
The murine B-cell lymphoma line A20 was used as an experimental model because it has been reported to grow well in mice and closely models the human situation.
SCID-NOD mice (BALB/c background) were shaved and 10E7 A20 cells injected subcutaneously (2 sites per mouse). The tumours tended to grow in a flat, diffuse manner and became raised and measurable at the 10E7 sites only after about 15 days. […]

The next series in a line: Solubility tests. It is filed as physicochemical. The text has this:
It requires a small amount of such solvents to form aqueous solutions. […] Higher solubilities may well be achieveable.

In the next series the test system is Haemonchus contortus. The series can be described thus: NemaTOX (Ne) anthelmintic larval development bioassay. How it is done: NemaTOX (alternatively referred to herein as Ne) is an anthelmintic bioassay, applicable to all parasitic nematodes with free-living life cycle stages, and can be used as a screen to detect activity and define the species spectrum of compounds against parasitic nematodes and examine the impact of pre-existing resistance to other anthelmintic classes on potency. Haemonchus contortus was utilised for this assay.
The effect on larval development was determined in this assay by the method described by Gill et al. (1995) Int. J. Parasitol. 25: 463-470. Briefly, in this assay nematode eggs were applied to the surface of an agar matrix containing the test sample and allowed to develop through to the L3, infective stage (6 days). At this time the stage of larval development reached and any unusual features (deformity, paralysis, toxicity) were noted by microscopic examination.

For series [2], the system named is NS1 murine myeloma cell line. The series can be described thus: CyTOX (Cy) chromogenic cytotoxicity bioassay. It is filed as cell-based. The text has this:
CyTOX (alternatively referred to herein as Cy) is a microtitre plate bioassay use to identify potential antitumour actives. CyTOX is a chromogenic bioassay with broad application to a wide range of tumour and non-tumour cell lines.
CyTOX features a liquid media into which the test compound has been incorporated together with a novel chromogen. As the cells grow and divide the chromogen is metabolised from purple in a single step process to a colourless metabolite. CyTOX was undertaken using NS1 murine myeloma cell line as a guide to mammalian cell toxicity.
Briefly, in CyTOX the cells were applied to the media containing the test chemical and allowed to grow for 72 hours. The assay was monitored at 24, 48 and 72 hours and the active wells identified.

The nature of a further series: Stability. It is filed as physicochemical. The text has this:
This instability was observed upon nitrogen evaporation but not while in acetonitrile/water solution at room temperature or on vacuum evaporation. To avoid decomposition the equivalent four bands of active metabolites from the second preparative HPLC were individually back extracted in the ethyl acetate and evaporated under vacuum. Analytical HPLC of these samples confirmed minimal decomposition.
[…] The structure has no readily reactive groups which might otherwise confer instability.

In another series the test system is normal skin. The series can be described thus: Inflammatory response of skin. To be noted: in vivo.
Series [3] concerns human nasopharyngeal tumour. In words: Intralesional injection of human nasopharyngeal tumour in SCID-NOD mice. The series is classed as in vivo, mouse. To be noted: up to 3 injections, total of 25 μg in 25% propylene glycol-saline, 2 mice. As for the experimental part: A second mouse model was tested in a pilot study, involving an 8 mm diameter human nasopharyngeal tumour implanted and growing subcutaneously on the neck of a SCID-NOD mouse. Up to 3 injections of EBI-46 (total of 25 μg in 75 μL25% propylene glycol-saline) were made into the NPC tumours of 2 mice.

The mark [4] stands for this setting: Table 6a, last well with activity, real value may be lower.

Entries after “also recorded” stand apart in the source; their conditions may differ.

Consider `C/C=C(\C)C(=O)OC1C(C)C2(O)C(C3OC3(CO)C(O)C3(O)C(=O)C(C)=CC32)C2C(C)(C)C12OC(=O)C(C)CC` (stereo not drawn) [EBI-46, 12-tigloyl-13-(2-methylbutanoyl)-6,7-epoxy-4,5,9,12,13,20-hexahydroxy-1-tiglian-3-one], for which the “Tr Titre” value in the series with Trichophyton rubrum was found to be 0. In addition, the “scattering of HT-29 colon tumour cells” value in the series with HT-29 colon tumour cells is listed as “scattering”. Moreover, the tumour growth result in series [1] is recorded as “strongly inhibited”. Further, the solubility in the series “Solubility tests” (5 μg/mL in 99.9% water), in the series “Solubility tests” (50 μg/mL in 99% water) and in “Solubility tests” (450 μg/mL in 90% water) was 100% throughout. For the same compound, the solubility in vehicle result in the series “Solubility tests” (25% propylene glycol-saline, 250 μg/mL) is given as “no sign of insolubility”; in the series “Solubility tests” (PEG 400 containing 10% ethanol), “freely soluble”. The “solubility in organic solvents” value in the series “Solubility tests” (acetone, alcohols and PEG 400) is “highly soluble”. Besides, the “Ne Titre” value with Haemonchus contortus was 2. Besides, in the series with Haemonchus contortus (setting [4]), the “Ne LD99” value came out at 31 pg/mL. The “Cy Titre” value in [2] is reported as 8. Moreover, the “Cy LD99” value in series [2] (setting [4]) was 7.8 pg/mL. Besides, in “Stability” (25% propylene glycol-saline at 4° C.), the stability of solution entry is on record as “stable for weeks”. For the same compound, the “stability by HPLC” value in the series “Stability” (PEG 400 containing 10% ethanol held at 37° C.) is on record as “confirmed”. Further, the stability of solutions entry in “Stability” (in ethanol, 4° C. for 4 weeks) is “retain bioactivity”. In the series with normal skin, the effect on skin entry is reported as “can cause inflammation of skin; also recorded: causes an inflammatory response in normal skin”. Besides, the tumour outcome in series [3] was “no sign of residual tumour; also recorded: delayed but not ablated”.
